Converted amounts (≈) assume the structure as drawn. Read-outs that look alike come from different tables or passages of the source.
Legend:
[1] = for hygroscopicity (classification from DVS): 15 to 95% RH, result in words; for hygroscopicity (classification from DVS) / Δ %weight 24 h: DVS; for Δ %weight 24 h: humidity increased stepwise from 15 to 95% RH at constant temperature; for Hygroscopicity (85-95%): summary table, same figures as Δ %weight 24 h of Table 1
Experimental: The objective was to measure the hygroscopicity of some crystalline forms of the present invention. The percentage increase of mass was calculated in order to evaluate the adsorption of water in the samples.
Dynamic Vapour Sorption (DVS) analysis is a technique specifically designed to provide information related to material response to changes in relative humidity and T°C. A Q5000 SA DVS equipment from TA Instruments was used for running the experiment.
The variation of the weight is controlled and the following percentage is calculated: Δ %weight = (Pn-P1)/P1 x 100 [formula] wherein: P1 is the initial weight , Pn is the weight measured for the sample.

[2] = for Hygroscopicity (85-95%): summary table, 85-95% RH, result in words; for Hygroscopicity: storage at ambient and humidity (40 C, 85-95% RH) conditions
[3] = pH 7.4; free form; cited from earlier work

Row | Compound | hygroscopicity (classification from DVS) [1] | Δ %weight 24 h [1] | Hygroscopicity (85-95%) [1] | Hygroscopicity (85-95%) [2] | solubility in water [3] | hygroscopicity (classification from DVS) ([1]; listed as sample 1) | Hygroscopicity [2]
1 | CC(C)C[C@H](CN)CC(=O)O.CC(C)C[C@H](CN)CC(=O)O.O.O=C(O)/C=C\C(=O)O.O=C(O)/C=C\C(=O)O [Example 7, (S)-Pregabalin - maleic acid - H2O (1:1:0.5)] | very hygroscopic | 37,9% | 37.9% |  |  |  | 
2 | CC(C)C[C@H](CN)CC(=O)O [PGB free base, (S)-3-(aminomethyl)-5-methylhexanoic acid, reference compound] |  |  |  | Non-hygroscopic | 32 mg/mL (≈ 201 mM) |  | 
3 | CC(C)C[C@H](CN)CC(=O)O.Cl.O=C(O)[C@@H]1CCCN1 [Example 6, (S)-Pregabalin - L-proline - HCl (1:1:1)] | deliquescent | 95% | 95% |  |  | sufficient water was absorbed to form a liquid | hygroscopic tendencies, particularly at humid conditions, to such an extent that it liquefied
4 | CC(C)C[C@H](CN)CC(=O)O.CCCCCCCCCCCC(=O)O [Example 11, (S)-Pregabalin - lauric acid (1:1)] | not hygroscopic | 0% |  | Non-hygroscopic |  |  | non-hygroscopic
